Reference: paper PMC10469688, “Comparative pharmacokinetics and safety evaluation of high dosage regimens of Andrographis paniculata aqueous extract after single and multiple oral administration in healthy participants” (Frontiers in Pharmacology, 2023)
Read-outs that look alike come from different tables or passages of the source.

What was measured:
[1] = Plasma pharmacokinetics after single and multiple oral administration of A. paniculata aqueous extract capsules in healthy participants (HPLC-MS/MS, non-compartmental analysis); assay type: in vivo, human; parameters: MRT: unit: h; Cmax: unit: ng/mL
Description: (§1) An opened-label, two-dosage, single- and multiple-oral dosing, single center, phase I safety and pharmacokinetic study was conducted in healthy participants while they were under a fasting condition. […] Two weeks prior to the beginning of the clinical study, the volunteers were advised to abstain from other dietary supplements, herbal products, or any concomitant medicines. During the period of the study, no other medications were allowed. All participants fasted overnight for at least 8 h before drug administration. The study conducted a single-dose investigation on day 1 by oral administering A. paniculata extract capsules once in both groups. Twelve participants in group 1 received 3 capsules orally (equivalent to 60 mg of andrographolide) with 240 mL of water, while another twelve participants in group 2 received 6 capsules (equivalent to 120 mg of andrographolide). This was followed by serial blood sampling for up to 24 h after dosing. For blood collection, 6 mL of venous blood in EDTA tube was collected via a forearm vein catheter at each time point including pre-dose (0 h), and post-dose after oral administration (T 0.167, 0.333, 0.5, 0.75, 1, 1.5, 2, 4, 6, 8, 10, 12 and 24 h). Subsequently, observation of elimination continued until 48 h post-dose to ensure complete excretion of the major active diterpenoids through urine. Urine samples were collected at day 0 (the day prior to dosing) and day 1–2 (T 0–4, 4–8, 8–12,12–24, 24–32, 32–40, and 40–48 h after dosing). The study then proceeded to investigate multiple doses in both groups by administering continuous oral doses from day 3 until the morning of day 5. (dosing at T48, 56, 64, 72, 80, 88, and 96 h). In group 1, three capsules were administered orally before meals, three times a day (3 × 3 capsules at 8-h intervals, calculated as 180 mg/day of andrographolide); whereas in group 2, six capsules were administered daily, three times a day (6 × 3 capsules at 8-h intervals, calculated as 360 mg/day of andrographolide). For serial blood sampling of multiple doses, 6 mL of blood samples were collected starting in the morning of day 5 (sampling timepoints T 96, 96.167, 96.333, 96.5, 96.75, 97, 97.5, 98, 100, 102, and 104 h post dose).
(§2) All collected blood samples were centrifuged at 4,000 rpm, 4^οC, for 5 min. Plasma was collected and stored in cryotubes at −70^οC until analysis. Urine was kept as 10 mL aliquot samples at each time point and stored at −70^οC until analysis. Extraction was performed by protein precipitation method as previously reported ([Songvut et al., 2023]). Briefly, 50 µL of either a plasma or urine sample was mixed with 200 µL of methanol containing an internal standard (IS) of digoxin (50 ng/mL). Pretreated samples were vortexed for 10 min and were then centrifuged at 12,000 rpm, 4°C, for 10 min. The supernatants were filtered through a 0.2 µm PVDF membrane and were subsequently transferred to vials for HPLC-MS/MS analysis.
(§3) Hydrolysis of the glucuronidated and sulfated conjugates was conducted by enzymatic incubation as our previous published method ([Songvut et al., 2023]). To analyze the metabolic conjugations, 50 μL of either a plasma or urine sample was pre-incubated at 37^οC with 50 µL of either of β-glucuronidase in sodium phosphate buffer (pH 6.8) for 30 min, or sulfatase in sodium acetate buffer (pH 5) for 2 h. IS (50 ng/mL) was then added along with 150 μL of methanol to precipitate protein. The extracted samples were then vortexed and centrifuged at 12,000 rpm, 4^οC, for 10 min. The supernatants were collected by filtering through a 0.2-µm PVDF membrane before HPLC-MS/MS injection.
(§4) Analysis for the concentrations of targeted compounds in plasma and urine samples were carried out using HPLC-MS/MS at the Laboratory of Pharmacology, Chulabhorn Research Institute, Bangkok, Thailand. The quantitative determination was performed according to a previously validated method ([Songvut et al., 2023]). […]

[2] = Cumulative urinary excretion after single oral administration of A. paniculata aqueous extract capsules in healthy participants; assay type: in vivo, human; details: urine T 0–48 h
Description: as §1, §2, §3, §4

[3] = single oral dose equivalent to 60 mg andrographolide, n = 12, mean ± SD
[4] = single oral dose equivalent to 120 mg andrographolide, n = 11, mean ± SD
[5] = multiple oral doses 60 mg × 3 times/day of andrographolide, n = 12, mean ± SD
[6] = multiple oral doses 60 mg × 3 times/day of andrographolide, n = 12, median [IQR]
[7] = multiple oral doses 120 mg × 3 times/day of andrographolide, n = 11, mean ± SD
[8] = multiple oral doses 120 mg × 3 times/day of andrographolide, n = 11, median [IQR]
[9] = single oral dose equivalent to 60 mg andrographolide, n = 12, median [IQR]
[10] = single oral dose equivalent to 120 mg andrographolide, n = 11, median [IQR]

Work on `C=C1CC[C@@H]2[C@](C)(CO)[C@H](O)CC[C@@]2(C)[C@@H]1CCC1=CCOC1=O` [14-Deoxyandrographolide, 14-deoxyandrographolide] yielded a CL/F ([1]; human, plasma, multiple oral doses 60 mg × 3 times/day of andrographolide, n = 12, mean ± SD) of 255 mL/min/kg, an AUC(0-t) ([1]; human, plasma, multiple oral doses 60 mg × 3 times/day of andrographolide, n = 12, mean ± SD, read-out: AUC(0–8h)) of 11.3 ± 3.3 ng·h/mL and an MRT ([1]; human, plasma, multiple oral doses 60 mg × 3 times/day of andrographolide, n = 12, mean ± SD, read-out: MRT) of 1.5 ± 0.11 h. It also gave a Vd/F ([1]; human, plasma, multiple oral doses 60 mg × 3 times/day of andrographolide, n = 12, mean ± SD, read-out: Vd/F) of 5.4 ± 3.1 L/kg, a half-life ([1]; human, plasma, multiple oral doses 60 mg × 3 times/day of andrographolide, n = 12, median [IQR]) of 0.23 h and a Tmax ([1]; human, plasma, multiple oral doses 60 mg × 3 times/day of andrographolide, n = 12, median [IQR], read-out: Tmax) of 1 h. The CL/F ([1]; human, plasma, multiple oral doses 120 mg × 3 times/day of andrographolide, n = 11, mean ± SD) was 302 mL/min/kg, the AUC(0-t) ([1]; human, plasma, multiple oral doses 120 mg × 3 times/day of andrographolide, n = 11, mean ± SD, read-out: AUC(0–8h)) was 20 ± 9.1 ng·h/mL and the MRT ([1]; human, plasma, multiple oral doses 120 mg × 3 times/day of andrographolide, n = 11, mean ± SD, read-out: MRT) was 1.6 ± 0.07 h. The Vd/F ([1]; human, plasma, multiple oral doses 120 mg × 3 times/day of andrographolide, n = 11, mean ± SD, read-out: Vd/F) was 5.7 ± 2.8 L/kg, the half-life ([1]; human, plasma, multiple oral doses 120 mg × 3 times/day of andrographolide, n = 11, median [IQR]) was 0.21 h and the Tmax ([1]; human, plasma, multiple oral doses 120 mg × 3 times/day of andrographolide, n = 11, median [IQR], read-out: Tmax) was 1 h. For the same compound, the Tmax ([1]; human, plasma, single oral dose equivalent to 60 mg andrographolide, n = 12, median [IQR], read-out: Tmax) was 1 h, the CL/F ([1]; human, plasma, single oral dose equivalent to 120 mg andrographolide, n = 11, mean ± SD) was 293 mL/min/kg and the AUC(0-inf) ([1]; human, plasma, single oral dose equivalent to 120 mg andrographolide, n = 11, mean ± SD, read-out: AUC(0-inf)) was 20.5 ± 8.8 ng·h/mL. For the same compound, the AUC(0-t) ([1]; human, plasma, single oral dose equivalent to 120 mg andrographolide, n = 11, mean ± SD, read-out: AUC(0–24h)) was 20.5 ± 8.8 ng·h/mL, the MRT ([1]; human, plasma, single oral dose equivalent to 120 mg andrographolide, n = 11, mean ± SD, read-out: MRT) was 1.5 ± 0.08 h and the Vd/F ([1]; human, plasma, single oral dose equivalent to 120 mg andrographolide, n = 11, mean ± SD, read-out: Vd/F) was 5.5 ± 2.9 L/kg. The half-life ([1]; human, plasma, single oral dose equivalent to 120 mg andrographolide, n = 11, median [IQR]) was 0.21 h, the Tmax ([1]; human, plasma, single oral dose equivalent to 120 mg andrographolide, n = 11, median [IQR], read-out: Tmax) was 1 h and the Cmax ([1]; human, multiple oral doses 60 mg × 3 times/day of andrographolide, plasma T 0–8 h, n = 12, mean ± SD, read-out: Cmax) was 6.6 ± 1.9 ng/mL. The Cmax ([1]; human, multiple oral doses 120 mg × 3 times/day of andrographolide, plasma T 0–8 h, n = 11, mean ± SD, read-out: Cmax) was 11.3 ± 5.5 ng/mL, the Cmax ([1]; human, single oral dose equivalent to 60 mg andrographolide, plasma T 0–24 h, n = 12, mean ± SD, read-out: Cmax) was 4.2 ± 3.4 ng/mL and the Cmax ([1]; human, single oral dose equivalent to 120 mg andrographolide, plasma T 0–24 h, n = 11, mean ± SD, read-out: Cmax) was 11.6 ± 5.4 ng/mL. The Cumulative urine [2, 3] was 108 ± 36.5 µg and the Cumulative urine [2, 4] was 199 ± 77.3 µg.
In the case of `C=C1CCC2C(C)(CO)C(O)CCC2(C)C1C=CC1=CCOC1=O` (stereo not shown) [14-Deoxy-11,12-didehydroandrographolide, 14-deoxy-11, 12-didehydroandrographolide], the “AUC(0–8h)” value [1, 5] is reported as 329 ± 55.5 ng·h/mL, the Cl/F [1, 5] is reported as 16.3 ± 3.83 mL/min/kg and the MRT [1, 5] is reported as 3.0 ± 0.61 h. The Vd/F [1, 5] was 2.6 ± 1.8 L/kg, the Half life [1, 6] was 1.6[0.80] h and the Tmax [1, 6] was 1.0[0.20] h. For the same compound, the Cmax ([1]; multiple oral doses 60 mg × 3 times/day of andrographolide, plasma T 0–8 h, n = 12, mean ± SD) was 137 ± 29.3 ng/mL, the “AUC(0–8h)” value [1, 7] was 693 ± 165 ng·h/mL and the Cl/F [1, 7] was 14.2 ± 2.33 mL/min/kg. The MRT [1, 7] was 4.5 ± 1.2 h, the Vd/F [1, 7] was 4.4 ± 2.0 L/kg and the Half life [1, 8] was 3.0[1.5] h. The Tmax [1, 8] was 1.0[0.33] h, the Cmax ([1]; multiple oral doses 120 mg × 3 times/day of andrographolide, plasma T 0–8 h, n = 11, mean ± SD) was 237 ± 41.4 ng/mL and the “AUC(0-inf)” value [1, 3] was 328 ± 102 ng·h/mL. For the same compound, the “AUC(0–24h)” value [1, 3] was 328 ± 102 ng·h/mL, the Cl/F [1, 3] was 18.3 ± 4.5 mL/min/kg and the MRT [1, 3] was 4.3 ± 0.44 h. For the same compound, the Vd/F [1, 3] was 2.1 ± 0.60 L/kg, the Half life [1, 9] was 1.4[0.07] h and the Tmax [1, 9] was 1.0[0.33] h. The Cmax ([1]; single oral dose equivalent to 60 mg andrographolide, plasma T 0–24 h, n = 12, mean ± SD) was 98.6 ± 40.3 ng/mL, the “AUC(0-inf)” value [1, 4] was 674 ± 274 ng·h/mL and the “AUC(0–24h)” value [1, 4] was 674 ± 274 ng·h/mL. For the same compound, the Cl/F [1, 4] was 18.3 ± 6 mL/min/kg, the MRT [1, 4] was 4.1 ± 0.65 h and the Vd/F [1, 4] was 2.0 ± 0.69 L/kg. For the same compound, the Half life [1, 10] was 1.2[0.06] h, the Tmax [1, 10] was 1.5[0.25] h and the Cmax ([1]; single oral dose equivalent to 120 mg andrographolide, plasma T 0–24 h, n = 11, mean ± SD) was 211 ± 138 ng/mL. The Cumulative urine [2, 3] was 70.6 ± 27.6 µg and the Cumulative urine [2, 4] was 159 ± 56.8 µg.
